Laboratory results as given in patent US9845310B2 (priority 2015, dated 2017).

Biological target: APJ (Homo sapiens (Human), UniProt P35414)
Test: [35S]GTPγS binding assay on membranes from CHO cells stably expressing human APJ receptor
Format: biochemical
Conditions: Activity hAPJ SPA EC50 IP (μM)
Procedure: A GTPγS binding assay was performed on membranes prepared from CHO cells stably expressing human APJ receptor. The optimum experimental conditions for the concentrations of GDP, MgCl2, and NaCl in the assay buffer were initially determined. The assay was performed in assay buffer [20 mM HEPES, pH 7.5, 5 mM MgCl2, and 0.1% (w/v) BSA with 200 mM NaCl, 3 M GDP] and membranes expressing human APJ receptor/well along with WGA PS beads. The reaction was initiated by addition of 0.2 nM [^35S]GTPγS (Perkin Elmer Life and Analytical Sciences, Waltham USA) in the absence or presence of various ligands and incubated at RT for 90 min. Nonspecific binding was determined in the presence of 100 M GTPγS and was always less than 0.2% of total binding.

Chain of APJ (P35414 whole entry): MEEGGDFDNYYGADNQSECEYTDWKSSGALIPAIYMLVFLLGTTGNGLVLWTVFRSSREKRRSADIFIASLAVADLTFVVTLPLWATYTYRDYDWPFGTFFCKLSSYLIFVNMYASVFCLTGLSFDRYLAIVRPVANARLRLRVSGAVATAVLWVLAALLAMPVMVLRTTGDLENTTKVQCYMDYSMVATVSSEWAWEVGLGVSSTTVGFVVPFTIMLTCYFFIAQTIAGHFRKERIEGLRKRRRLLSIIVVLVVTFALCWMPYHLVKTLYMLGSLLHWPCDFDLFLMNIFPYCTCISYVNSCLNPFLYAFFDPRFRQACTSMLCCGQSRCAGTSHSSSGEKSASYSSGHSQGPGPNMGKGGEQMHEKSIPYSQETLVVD

Compound | EC50 [µM]
COc1cccc(OC)c1-n1c(NS(=O)(=O)[C@@H](C)[C@H](C)c2ncc(F)cn2)nnc1-c1cccnc1 (single isomer, unassigned) [Example 183.0, (2R,3S)-N-(4-(2,6-dimethoxyphenyl)-5-(3-pyridinyl)-4H-1,2,4-triazol-3-yl)-3-(5-fluoro-2-pyrimidinyl)-2-butanesulfonamide or (2S,3R)-N-(4-(2,6-dimethoxyphenyl)-5-(3-pyridinyl)-4H-1,2,4-triazol-3-yl)-3-(5-fluoro-2-pyrimidinyl)-2-butanesulfonamide] | 0.06
COc1cnc([C@@H](OC)[C@H](C)S(=O)(=O)Nc2nnc(-c3cncc(C)c3)n2-c2c(OC)cccc2OC)cn1 (single isomer, unassigned) [Example 310.0] | 0.00066
COc1cccc(OC)c1-n1c(NS(=O)(=O)[C@@H](C)Cc2ncc(F)cn2)nnc1-c1cccc(C)n1 (single isomer, unassigned) [Example 619.0, (S)-N-(4-(2,6-dimethoxyphenyl)-5-(6-methylpyridin-2-yl)-4H-1,2,4-triazol-3-yl)-1-(5-fluoropyrimidin-2-yl)propane-2-sulfonamide or (R)-N-(4-(2,6-dimethoxyphenyl)-5-(6-methylpyridin-2-yl)-4H-1,2,4-triazol-3-yl)-1-(5-fluoropyrimidin-2-yl)propane-2-sulfonamide] | 0.0015
COc1ccnc(OC)c1-n1c(NS(=O)(=O)[C@@H](C)[C@H](OC)c2ccc(Cl)cn2)nnc1-c1cccnc1 (single isomer, unassigned) [Example 715.0, (1R,2S,P)-1-(5-chloro-2-pyridinyl)-N-(4-(2,4-dimethoxy-3-pyridinyl)-5-(3-pyridinyl)-4H-1,2,4-triazol-3-yl)-1-methoxy-2-propanesulfonamide or (1R,2S,M)-1-(5-chloro-2-pyridinyl)-N-(4-(2,4-dimethoxy-3-pyridinyl)-5-(3-pyridinyl)-4H-1,2,4-triazol-3-yl)-1-methoxy-2-propanesulfonamide] | 0.00031
COc1cccc(-c2nnc(NS(=O)(=O)[C@@H](C)[C@H](OC)c3ncc(C)cn3)n2-c2c(OC)ccnc2OC)n1 (single isomer, unassigned) [Example 771.0] | 0.002
COc1cccc(OC)c1-n1c(NS(=O)(=O)[C@@H](C)[C@H](OC)c2ncnn2C)nnc1-c1cncc(C)c1 (single isomer, unassigned) [Example 781.0, (1R,2S)-N-(4-(2,6-dimethoxyphenyl)-5-(5-methyl-3-pyridinyl)-4H-1,2,4-triazol-3-yl)-1-methoxy-1-(1-methyl-1H-1,2,4-triazol-5-yl)-2-propanesulfonamide or (1S,2R)-N-(4-(2,6-dimethoxyphenyl)-5-(5-methyl-3-pyridinyl)-4H-1,2,4-triazol-3-yl)-1-methoxy-1-(1-methyl-1H-1,2,4-triazol-5-yl)-2-propanesulfonamide] | 0.59
COc1cccc(OC)c1-n1c(NS(=O)(=O)[C@@H](C)[C@H](OC)c2ncnn2C)nnc1-c1cncc(C)c1 (single isomer, unassigned) [Example 782.0, (1R,2S)-N-(4-(2,6-dimethoxyphenyl)-5-(5-methyl-3-pyridinyl)-4H-1,2,4-triazol-3-yl)-1-methoxy-1-(1-methyl-1H-1,2,4-triazol-5-yl)-2-propanesulfonamide or (1S,2R)-N-(4-(2,6-dimethoxyphenyl)-5-(5-methyl-3-pyridinyl)-4H-1,2,4-triazol-3-yl)-1-methoxy-1-(1-methyl-1H-1,2,4-triazol-5-yl)-2-propanesulfonamide] | 0.028
COc1cccc(OC)c1-n1c(NS(=O)(=O)[C@H](C)[C@H](OC(C)C)c2cnc(C)cn2)nnc1-c1cccc(C)n1 (single isomer, unassigned) [Example 824.0, (1S,2S)-N-(4-(2,6-dimethoxyphenyl)-5-(6-methylpyridin-2-yl)-4H-1,2,4-triazol-3-yl)-1-isopropoxy-1-(5-methylpyrazin-2-yl)propane-2-sulfonamide or (1R,2R)-N-(4-(2,6-dimethoxyphenyl)-5-(6-methylpyridin-2-yl)-4H-1,2,4-triazol-3-yl)-1-isopropoxy-1-(5-methylpyrazin-2-yl)propane-2-sulfonamide] | 0.00047

Same assay, conditions: read-out: Activity hAPJ SPA EC50 IP

Compound | EC50 [µM]
COc1cccc(OC)c1-n1c(NS(=O)(=O)[C@@H](C)[C@H](O)c2ccc(C#N)cc2)nnc1-c1cncc(C)c1 (single isomer, unassigned) [Example 249.0, (1R,2S)-1-(4-cyanophenyl)-N-(4-(2,6-dimethoxyphenyl)-5-(5-methyl-3-pyridinyl)-4H-1,2,4-triazol-3-yl)-1-hydroxy-2-propanesulfonamide or (1S,2R)-1-(4-cyanophenyl)-N-(4-(2,6-dimethoxyphenyl)-5-(5-methyl-3-pyridinyl)-4H-1,2,4-triazol-3-yl)-1-hydroxy-2-propanesulfonamide] | 0.0011
CCO[C@@H](c1cnc(C)cn1)[C@@H](C)S(=O)(=O)Nc1nnc(-c2cccc(OC)n2)n1-c1c(OC)cccc1OC (single isomer, unassigned) [Example 588.0, (1S,2R)-N-(4-(2,6-dimethoxyphenyl)-5-(6-methoxy-2-pyridinyl)-4H-1,2,4-triazol-3-yl)-1-ethoxy-1-(5-methyl-2-pyrazinyl)-2-propanesulfonamide or (1R,2S)-N-(4-(2,6-dimethoxyphenyl)-5-(6-methoxy-2-pyridinyl)-4H-1,2,4-triazol-3-yl)-1-ethoxy-1-(5-methyl-2-pyrazinyl)-2-propanesulfonamide] | 0.00052
CCO[C@@H](c1cnc(C)cn1)[C@@H](C)S(=O)(=O)Nc1nnc(-c2cccc(OC)n2)n1-c1c(OC)cccc1OC (single isomer, unassigned) [Example 589.0, (1S,2R)-N-(4-(2,6-dimethoxyphenyl)-5-(6-methoxy-2-pyridinyl)-4H-1,2,4-triazol-3-yl)-1-ethoxy-1-(5-methyl-2-pyrazinyl)-2-propanesulfonamide or (1R,2S)-N-(4-(2,6-dimethoxyphenyl)-5-(6-methoxy-2-pyridinyl)-4H-1,2,4-triazol-3-yl)-1-ethoxy-1-(5-methyl-2-pyrazinyl)-2-propanesulfonamide] | 0.02
COc1cccc(OC)c1-n1c(NS(=O)(=O)[C@@H](C)[C@H](OC)c2ncc(C)o2)nnc1-c1cncc(C)c1 (single isomer, unassigned) [Example 632.0, (1S,2R)-N-(4-(2,6-dimethoxyphenyl)-5-(5-methylpyridin-3-yl)-4H-1,2,4-triazol-3-yl)-1-methoxy-1-(5-methyloxazol-2-yl)propane-2-sulfonamide or (1R,2S)-N-(4-(2,6-dimethoxyphenyl)-5-(5-methylpyridin-3-yl)-4H-1,2,4-triazol-3-yl)-1-methoxy-1-(5-methyloxazol-2-yl)propane-2-sulfonamide] | 0.21
COc1cccc(OC)c1-n1c(NS(=O)(=O)[C@@H](C)[C@H](OC)c2ncc(C)o2)nnc1-c1cncc(C)c1 (single isomer, unassigned) [Example 633.0, (1S,2R)-N-(4-(2,6-dimethoxyphenyl)-5-(5-methylpyridin-3-yl)-4H-1,2,4-triazol-3-yl)-1-methoxy-1-(5-methyloxazol-2-yl)propane-2-sulfonamide or (1R,2S)-N-(4-(2,6-dimethoxyphenyl)-5-(5-methylpyridin-3-yl)-4H-1,2,4-triazol-3-yl)-1-methoxy-1-(5-methyloxazol-2-yl)propane-2-sulfonamide] | 0.0069
COc1cccc(OC)c1-n1c(NS(=O)(=O)[C@@H](C)[C@H](C)c2ncc(F)c([C@@H]3COCCO3)n2)nnc1-c1cccc(OCC(O)(C(F)(F)F)C(F)(F)F)n1 (single isomer, unassigned) [Example 639.0] | 0.16
COc1cccc(OC)c1-n1c(NS(=O)(=O)[C@@H](C)[C@H](C)c2ncc(F)c([C@@H]3COCCO3)n2)nnc1-c1cccc(OCC(O)(C(F)(F)F)C(F)(F)F)n1 (single isomer, unassigned) [Example 640.0] | 0.33
COc1cccc(OC)c1-n1c(NS(=O)(=O)[C@@H]2CCCO[C@@H]2c2ncc(C)cn2)nnc1-c1cncc(C)c1 (single isomer, unassigned) [Example 643.0] | 0.15
COc1cccc(OC)c1-n1c(NS(=O)(=O)[C@@H]2CCCO[C@@H]2c2ncc(C)cn2)nnc1-c1cncc(C)c1 (single isomer, unassigned) [Example 644.0] | 0.18
COc1cccc(OC)c1-n1c(NS(=O)(=O)[C@@H]2CCCO[C@@H]2c2ncc(C)cn2)nnc1-c1cncc(C)c1 (single isomer, unassigned) [Example 645.0] | 0.06
COc1cccc(OC)c1-n1c(NS(=O)(=O)[C@@H]2CCCO[C@@H]2c2ncc(C)cn2)nnc1-c1cncc(C)c1 (single isomer, unassigned) [Example 646.0] | 0.053
COc1cccc(-c2nnc(NS(=O)(=O)[C@@H]3CCCO[C@@H]3c3ncc(C)cn3)n2-c2c(OC)cccc2OC)n1 (single isomer, unassigned) [Example 654.0] | 0.15
COc1cccc(-c2nnc(NS(=O)(=O)[C@@H]3CCCO[C@@H]3c3ncc(C)cn3)n2-c2c(OC)cccc2OC)n1 (single isomer, unassigned) [Example 655.0] | 0.13
COc1cccc(-c2nnc(NS(=O)(=O)[C@@H]3CCCO[C@@H]3c3ncc(C)cn3)n2-c2c(OC)cccc2OC)n1 (single isomer, unassigned) [Example 656.0] | 0.013
COc1cccc(-c2nnc(NS(=O)(=O)[C@@H]3CCCO[C@@H]3c3ncc(C)cn3)n2-c2c(OC)cccc2OC)n1 (single isomer, unassigned) [Example 657.0] | 0.014
COc1cccc(-c2nnc(NS(=O)(=O)[C@H](C)[C@H](OC(C)C)c3cnc(C)cn3)n2-c2c(OC)cccc2OC)n1 (single isomer, unassigned) [Example 825.0, (1S,2S)-N-(4-(2,6-dimethoxyphenyl)-5-(6-methoxypyridin-2-yl)-4H-1,2,4-triazol-3-yl)-1-isopropoxy-1-(5-methylpyrazin-2-yl)propane-2-sulfonamide or (1R,2R)-N-(4-(2,6-dimethoxyphenyl)-5-(6-methoxypyridin-2-yl)-4H-1,2,4-triazol-3-yl)-1-isopropoxy-1-(5-methylpyrazin-2-yl)propane-2-sulfonamide] | 0.00015
